In PubChem BioAssay AID248 (DTP/NCI, 2004):
Several values for one entry are separate records, joined by “and”; a condition that tells them apart may be missing. Identical values can stand only once. Toxic doses and inconclusive results are not listed. No stated cut-off is given here; in the data, active means T/C of 150% or more; inactive means T/C below 125%.

Tested on: L1210 leukemia ip in BDF1 mice, survival T/C
Assay: NCI In Vivo Anticancer Drug Screen. Data for tumor model L1210 Leukemia (intraperitoneal) in B6D2F1 (BDF1) mice
Conditions: endpoint: mean survival time, higher = longer survival
Summary of the method: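 Transplantable tumor model; survival measured in treated vs vehicle control mice. Value = treated/control.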

[1] = dose: 50.0 mg/kg/injection, schedule: Q01DX009 (ip), vehicle: water
[2] = dose: 100.0 mg/kg/injection, schedule: Q01DX009 (ip), vehicle: water
[3] = dose: 100.0 mg/kg/injection, schedule: Q04DX003 (ip), vehicle: water
[4] = dose: 200.0 mg/kg/injection, schedule: Q04DX003 (ip), vehicle: water
[5] = dose: 100.0 mg/kg/injection, schedule: Q01DX009 (ip), vehicle: Klucel (hydroxypropylcellulose) (HPC)
[6] = dose: 100.0 mg/kg/injection, schedule: Q04DX003 (ip), vehicle: Klucel (hydroxypropylcellulose) (HPC)
[7] = dose: 200.0 mg/kg/injection, schedule: Q01DX009 (ip), vehicle: Klucel (hydroxypropylcellulose) (HPC)
[8] = dose: 200.0 mg/kg/injection, schedule: Q04DX003 (ip), vehicle: Klucel (hydroxypropylcellulose) (HPC)
[9] = dose: 400.0 mg/kg/injection, schedule: Q01DX009 (ip), vehicle: Klucel (hydroxypropylcellulose) (HPC)
[10] = dose: 400.0 mg/kg/injection, schedule: Q04DX003 (ip), vehicle: Klucel (hydroxypropylcellulose) (HPC)
[11] = dose: 100.0 mg/kg/injection, schedule: Q04DX002 (ip), vehicle: Klucel (hydroxypropylcellulose) (HPC)
[12] = dose: 200.0 mg/kg/injection, schedule: Q04DX002 (ip), vehicle: Klucel (hydroxypropylcellulose) (HPC)
[13] = dose: 400.0 mg/kg/injection, schedule: Q04DX002 (ip), vehicle: Klucel (hydroxypropylcellulose) (HPC)
[14] = dose: 100.0 mg/kg/injection, schedule: Q04DX003 (ip), vehicle: saline with Tween-80
[15] = dose: 200.0 mg/kg/injection, schedule: Q04DX003 (ip), vehicle: saline with Tween-80
[16] = dose: 400.0 mg/kg/injection, schedule: Q04DX003 (ip), vehicle: saline with Tween-80

Measured: T/C

CN(Cc1ccc2nc(N)[nH]c(=O)c2c1)c1ccc(C(=O)NC(CCC(=O)O)C(=O)O)cc1 (stereo not given)
inactive: [1] 104 % of control | [2] 113 % of control | [3] 108 % of control | [4] 100 % of control

O=C(O)C1CCC(CC23CC4CC(CC(C4)C2)C3)CC1 (stereo not given)
inactive: [5] 108 % of control | [6] 103 % of control | [7] 103 % of control | [8] 105 % of control | [9] 109 % of control | [10] 101 % of control

O=S(c1ccccc1)C(Cl)C1(O)CCCCC1 (stereo not given)
inactive: dose: 100.0 mg/kg/injection, schedule: Q03DX002 (ip), vehicle: saline with Tween-80 98 % of control | dose: 200.0 mg/kg/injection, schedule: Q03DX002 (ip), vehicle: saline with Tween-80 98 % of control | dose: 400.0 mg/kg/injection, schedule: Q03DX002 (ip), vehicle: saline with Tween-80 102 % of control

Cc1cc2c3ccccc3ccc2[n+]2ccccc12
inactive: dose: 4.5 mg/kg/injection, schedule: Q01DX009 (ip), vehicle: acetone 115 % of control | dose: 4.5 mg/kg/injection, schedule: Q01DX009 (ip), vehicle: saline 100 % of control | dose: 9.0 mg/kg/injection, schedule: Q01DX009 (ip), vehicle: acetone 120 % of control | dose: 9.0 mg/kg/injection, schedule: Q01DX009 (ip), vehicle: saline 110 % of control | dose: 18.0 mg/kg/injection, schedule: Q01DX009 (ip), vehicle: acetone 115 % of control | dose: 18.0 mg/kg/injection, schedule: Q01DX009 (ip), vehicle: saline 120 % of control | dose: 100.0 mg/kg/injection, schedule: Q01DX001 (ip), vehicle: saline 107 % of control

O=C(SCCSC(=O)c1ccccc1)c1ccccc1
inactive: dose: 75.0 mg/kg/injection, schedule: Q04DX003 (ip), vehicle: other 98 % of control | dose: 150.0 mg/kg/injection, schedule: Q04DX003 (ip), vehicle: other 106 % of control | dose: 300.0 mg/kg/injection, schedule: Q04DX003 (ip), vehicle: other 112 % of control

Cc1cc(C)[c]([Hg][Cl])c(C)c1
inactive: dose: 6.0 mg/kg/injection, schedule: Q01DX009 (ip), vehicle: saline with Tween-80 100 % of control | dose: 6.0 mg/kg/injection, schedule: Q04DX003 (ip), vehicle: saline with Tween-80 94 % of control | dose: 12.0 mg/kg/injection, schedule: Q01DX009 (ip), vehicle: saline with Tween-80 87 % of control | dose: 12.0 mg/kg/injection, schedule: Q04DX003 (ip), vehicle: saline with Tween-80 103 % of control | dose: 25.0 mg/kg/injection, schedule: Q01DX009 (ip), vehicle: saline with Tween-80 90 % of control | dose: 25.0 mg/kg/injection, schedule: Q04DX003 (ip), vehicle: saline with Tween-80 92 % of control

CCOC(=S)SCC(=O)c1ccc(Br)cc1
inactive: [11] 101 % of control | [12] 92 % of control | [13] 86 % of control

O=C(NC(=S)Nc1cccc(Cl)c1)c1ccc(Cl)cc1Cl
inactive: dose: 100.0 mg/kg/injection, schedule: Q01DX001 (ip), vehicle: Klucel (hydroxypropylcellulose) (HPC) 87 % of control | [5] 87 % of control | [11] 115 % of control | [6] 97 % of control | [7] 97 % of control and 87 % of control | [12] 93 % of control | [8] 103 % of control | [9] 87 % of control and 92 % of control | [13] 94 % of control | [10] 108 % of control

CC(C)OC(=O)COc1cc(F)c(Cl)cc1Cl
inactive: [11] 102 % of control | [12] 95 % of control | [13] 102 % of control

CCCCOP(=O)(NC12CC3CC(CC(C3)C1)C2)OCCCC
inactive: [5] 97 % of control | [6] 100 % of control | [7] 97 % of control | [8] 92 % of control | [9] 100 % of control | [10] 96 % of control

Cc1ccc(CNCC(=O)O)cc1
inactive: [1] 102 % of control | [2] 98 % of control | dose: 100.0 mg/kg/injection, schedule: Q01DX Z (ip), vehicle: saline 96 % of control | [3] 95 % of control | dose: 200.0 mg/kg/injection, schedule: Q01DX009 (ip), vehicle: water 95 % of control | dose: 200.0 mg/kg/injection, schedule: Q01DX Z (ip), vehicle: saline 104 % of control | [4] 88 % of control

COc1cc(N)c2c(c1O)CN(C)CC2
inactive: dose: 75.0 mg/kg/injection, schedule: Q01DX001 (ip), vehicle: saline 95 % of control | dose: 150.0 mg/kg/injection, schedule: Q01DX001 (ip), vehicle: saline 100 % of control | dose: 300.0 mg/kg/injection, schedule: Q01DX001 (ip), vehicle: saline 86 % of control

CCCCCCCCCCCCCCC[N+](C)(C)C
inactive: dose: 12.5 mg/kg/injection, schedule: Q01DX009 (ip), vehicle: saline 102 % of control | dose: 25.0 mg/kg/injection, schedule: Q01DX009 (ip), vehicle: saline 93 % of control

CC1=C2C(=O)c3ccccc3C2=C(C)S(=O)(=O)O1
inactive: dose: 100.0 mg/kg/injection, schedule: Q01DX009 (ip), vehicle: saline with Tween-80 101 % of control | [14] 98 % of control | dose: 200.0 mg/kg/injection, schedule: Q01DX009 (ip), vehicle: saline with Tween-80 88 % of control | [15] 106 % of control | dose: 400.0 mg/kg/injection, schedule: Q01DX009 (ip), vehicle: saline with Tween-80 94 % of control | [16] 98 % of control

NC(N)=S
inactive: dose: 100.0 mg/kg/injection, schedule: Q01DX009 (ip), vehicle: saline 103 % of control | dose: 100.0 mg/kg/injection, schedule: Q01DX015 (oral), vehicle: saline 97 % of control and 121 % of control | dose: 100.0 mg/kg/injection, schedule: Q04DX002 (ip), vehicle: saline 100 % of control | dose: 200.0 mg/kg/injection, schedule: Q01DX009 (ip), vehicle: saline 101 % of control | dose: 200.0 mg/kg/injection, schedule: Q01DX015 (oral), vehicle: saline 100 % of control and 121 % of control | dose: 200.0 mg/kg/injection, schedule: Q04DX002 (ip), vehicle: saline 113 % of control | dose: 400.0 mg/kg/injection, schedule: Q01DX009 (ip), vehicle: saline 103 % of control | dose: 400.0 mg/kg/injection, schedule: Q01DX015 (oral), vehicle: saline 122 % of control | dose: 400.0 mg/kg/injection, schedule: Q04DX002 (ip), vehicle: saline 95 % of control

C#CC[P+](c1ccccc1)(c1ccccc1)c1ccccc1
inactive: dose: 6.25 mg/kg/injection, schedule: Q01DX001 (ip), vehicle: saline 106 % of control | dose: 12.5 mg/kg/injection, schedule: Q01DX001 (ip), vehicle: saline 109 % of control | dose: 25.0 mg/kg/injection, schedule: Q01DX001 (ip), vehicle: saline 116 % of control and 118 % of control

CNC1CC(N)C(O)C(OC2OC(CO)C(O)C3OC4(OC(C(N)CO)C(O)C(O)C4O)OC23)C1O (stereo not given)
inactive: dose: 2.2 mg/kg/injection, schedule: Q01DX Z (ip), vehicle: saline 97 % of control | dose: 3.3 mg/kg/injection, schedule: Q01DX Z (ip), vehicle: saline 94 % of control | dose: 5.0 mg/kg/injection, schedule: Q01DX Z (ip), vehicle: saline 89 % of control | dose: 7.6 mg/kg/injection, schedule: Q01DX Z (ip), vehicle: saline 94 % of control

c1ccc(-c2ccc(-c3ccccc3)c(-c3ccc4c(c3)CCC4)c2-c2ccccc2)cc1
inactive: [14] 96 % of control | [15] 96 % of control | [16] 89 % of control

Cc1ccc(C)c(NC(=O)c2ccc(Cl)c(Cl)c2)c1
inactive: dose: 1.5 mg/kg/injection, schedule: Q01DX009 (ip), vehicle: Klucel (hydroxypropylcellulose) (HPC) 92 % of control | dose: 3.0 mg/kg/injection, schedule: Q01DX009 (ip), vehicle: Klucel (hydroxypropylcellulose) (HPC) 99 % of control | dose: 6.0 mg/kg/injection, schedule: Q01DX009 (ip), vehicle: Klucel (hydroxypropylcellulose) (HPC) 97 % of control | dose: 6.25 mg/kg/injection, schedule: Q01DX009 (ip), vehicle: Klucel (hydroxypropylcellulose) (HPC) 88 % of control | dose: 50.0 mg/kg/injection, schedule: Q01DX009 (ip), vehicle: Klucel (hydroxypropylcellulose) (HPC) 86 % of control | [6] 93 % of control | [8] 91 % of control | [9] 86 % of control | [10] 90 % of control
